# Measurements taken from patent US9475783B2, “Antimicrobial agents” (Rutgers, the State University of New Jersey, priority 2012, dated 2016).
# Tested on: not listed separately
# Assay: Test D formulation of test compounds (solubility in vehicles)
# Assay type: physicochemical
# Details: 10 mM citrate alone
# Method: Test D. Formulation of Test Compounds.
# The literature vehicle reported for formulation of 5-chloro-2-(2,4-difluoro-3-aminocarbonylphenoxy)methylpyridylthiazole for i.v. administration consists of 20% DMA, 40% polyethylene glycol and 40% saline. […] Mice that were treated 15 minutes later with a second injection consisting of 150 μl of this vehicle died. In addition, concentrations of 5-chloro-2-(2,4-difluoro-3-aminocarbonylphenoxy)methylpyridylthiazole at or above 2.2 mg/ml in this vehicle were not completely dissolved and existed as a suspension (in a 28 g mouse this would be 15.7 mg/kg). A number of other formulations with 5-chloro-2-(2,4-difluoro-3-aminocarbonylphenoxy)methyl […] were tried, such as 20% DMA, 40% proplyeneglycol in 8% Cremophor-EL. […] Because of the limited solubility and the absence of a suitable vehicle, the literature study where it was reported that a 30 mg/kg dose of 5-chloro-2-(2,4-difluoro-3-aminocarbonylphenoxy)methylpyridylthiazole was delivered to mice in a single injection could not be repeated. […] In some instances the addition of 10-30% propylene glycocol did allow for greater retention of solubility of the test compounds. Example 4 was also found to formulate well at a 2.0 mg/ml concentration in 10 mM malic acid with 20% propylene glycol and with 10 mM p-toluenesulphonate alone. Example 6 did formulate well in 10 mM citrate alone at a concentration of 2.0 mg/ml. […] The ability of mice to tolerate this vehicle did allow for multiple dosing in the assessment of Example 6 in vivo and to actually deliver higher doses of the Example 6 because of the compatibility of a predominately aqueous vehicle.
row,Compound,concentration formulated well [µg/mL]
1,CN(C)CNC(=O)c1c(F)ccc(OCc2nc3cc(Cl)cnc3s2)c1F [Example 6],2000

# Same assay, conditions: 10 mM malic acid with 20% propylene glycol
row,Compound,concentration formulated well [µg/mL]
1,CN(C)CNC(=O)c1c(F)ccc(OCc2nc3cc(Cl)ccc3s2)c1F [Example 4],2000

# Same assay, conditions: 10 mM p-toluenesulphonate alone
row,Compound,concentration formulated well [µg/mL]
1,CN(C)CNC(=O)c1c(F)ccc(OCc2nc3cc(Cl)ccc3s2)c1F [Example 4],2000

# Same assay, conditions: 10 mM solutions of citrate, methane sulfonate, p-toluene sulphonate, phosphoric acid, and tartaric acid
row,Compound,concentration readily formulated [µg/mL]
1,CN(C)CNC(=O)c1c(F)ccc(OCc2nc3cc(Cl)ccc3s2)c1F [Example 4],2000
2,CN(C)CNC(=O)c1c(F)ccc(OCc2nc3cc(Cl)cnc3s2)c1F [Example 6],2000

# Tested on: MSSA
# Assay: Test A antibacterial assay, broth microdilution MIC
# Assay type: cell-based
# Details: Staphylococcus aureus, growth read after 24 to 48 hours at OD 600 nm
# Method: Test A. Antibacterial Assay. Antibacterial activity can be determined as per Clinical and Laboratory Standards Institute (CLSI) guidelines using a broth microdilution assay in which log-phase bacteria are grown at 37° C. in appropriate medium containing two-fold serial dilutions of a compound to yield final concentrations ranging from 256 to 0.06 μg/mL. For determination of minimal inhibitory concentration (MIC) values, bacterial growth is monitored after 24 to 48 hours by measuring optical density at 600 nm.
row,Compound,MIC [µg/mL]
1,Cc1nc(COc2ccc(F)c(C(=O)NCN(C)Cc3ccc(C(F)(F)F)cc3)c2F)sc1-c1ccc(C(C)(C)C)cc1 [Example 35],> 64
2,O=C(NCn1ccnc1)c1c(F)ccc(OCc2nc3cc(Cl)ccc3s2)c1F [Example 2],> 64
3,CN(C)CNC(=O)c1c(F)ccc(OCc2nc3cc(Cl)ccc3s2)c1F [Example 4],0.125
4,CCN(CC)CNC(=O)c1c(F)ccc(OC(C)c2nc(C)c(-c3ccc(C(C)(C)C)cc3)s2)c1F (centres unmarked) [Example 19],1
5,COc1ccc(CN(C)CNC(=O)c2c(F)ccc(OCc3nc4cc(Cl)ccc4s3)c2F)cc1 [Example 10],0.25
6,Cc1ccc(CN(C)CNC(=O)c2c(F)ccc(OCc3nc4cc(Cl)ccc4s3)c2F)cc1 [Example 14],0.25
7,Cc1ccc(CN(C)CNC(=O)c2c(F)ccc(OCc3nc(-c4ccc(C(F)(F)F)cc4)c(Br)o3)c2F)cc1 [Example 23],0.25
8,O=C(NC(c1cccc(Br)c1)N1CCOCC1)c1c(F)ccc(OCc2nc3cc(Cl)ccc3s2)c1F (centres unmarked) [Example 30],0.5
9,O=C(NC(c1ccccc1)N1CCOCC1)c1c(F)ccc(OCc2nc3cc(Cl)cnc3s2)c1F (centres unmarked) [Example 29],1
10,C/C(=N\C(=O)c1c(F)ccc(OCc2nc3cc(Cl)ccc3s2)c1F)N(C)C [Example 44],2
11,CN(CNC(=O)c1c(F)ccc(OCc2nc3cc(Cl)ccc3s2)c1F)Cc1ccc(C(F)(F)F)cc1 [Example 12],0.5
12,CN1CCN(CNC(=O)c2c(F)ccc(OCc3nc4cc(Cl)cnc4s3)c2F)CC1 [Example 8],2
13,CC1CCN(CNC(=O)c2c(F)ccc(OCc3nc4cc(Cl)ccc4s3)c2F)CC1 [Example 18],0.25
14,Cc1nc(COc2ccc(F)c(C(=O)NCN(C)C)c2F)sc1-c1ccncc1 [Example 1],> 64
15,CN(C)/C=N/C(=O)c1c(F)ccc(OCc2nc3cc(Cl)ccc3s2)c1F [Example 3],< 0.125
16,CN1CCN(C(NC(=O)c2c(F)ccc(OCc3nc4cc(Cl)ccc4s3)c2F)c2ccncc2)CC1 (centres unmarked) [Example 37],0.5
17,CN1CCN(C(NC(=O)c2c(F)ccc(OCc3nc4cc(Cl)ccc4s3)c2F)c2cccc(Br)c2)CC1 (centres unmarked) [Example 31],0.5
18,CN(C)/C=N/C(=O)c1c(F)ccc(OCc2nc3cc(Cl)cnc3s2)c1F [Example 5],0.25
19,Cc1nc(COc2ccc(F)c(C(=O)NCN3CCC(C)CC3)c2F)sc1-c1ccc(C(C)(C)C)cc1 [Example 21],0.5
20,COc1ccc(CN(C)CNC(=O)c2c(F)ccc(OCc3nc4cc(Cl)ccc4o3)c2F)cc1 [Example 26],16
21,O=C(NCNCc1ccccc1)c1c(F)ccc(OCc2nc3cc(Cl)ccc3s2)c1F [Example 41],0.5
22,CN(C)CNC(=O)c1c(F)ccc(OCc2nc3cc(Cl)cnc3s2)c1F [Example 6],0.25

# Tested on: Bacillus subtilis FG347 bacteria
# Assay: Test C FtsZ Z-ring assay (GFP-ZapA fluorescence microscopy)
# Assay type: cell-based
# Details: compound at 3 μg/mL
# Method: Test C. FtsZ Z-Ring Assay.
# The impact of a compound on FtsZ Z-ring formation can be determined using a strain of Bacillus subtilis (FG347) that expresses a green fluorescent protein (GFP)-ZapA fusion protein upon induction with xylose. ZapA is known to associate with FtsZ Z-rings in B. subtilis and, thus, serves as a marker for Z-ring formation. In this assay, log-phase FG347 bacteria are treated with differing concentrations of compound for time periods ranging from 1 to 6 hours. At each time point, aliquots are taken from each culture and then viewed with a fluorescence microscope.
# Examples 4 and 6-8 were evaluated for their impact on the polymerization of Staphylococcus aureus FtsZ. […] In addition, Example 5 and 7 were also examined for their impact on FtsZ Z-ring formation in Bacillus subtilis FG347 bacteria. […] These collective results highlight the compounds of the invention as FtsZ-targeting antibacterial agents.
Compound,bacterial morphology induced,impact on FtsZ Z-ring formation
CN(C)/C=N/C(=O)c1c(F)ccc(OCc2nc3cc(Cl)cnc3s2)c1F [Example 5],"elongated, filamentous morphology",inhibit FtsZ Z-ring formation

# Tested on: MSSA (S. aureus)
# Assay: Test E in vivo efficacy, murine septicemia model of staphylococcal infection
# Details: MSSA-infected mice, i.v. tail vein, four doses at 15 minute interval in 10 mM citrate; 24 h monitoring
# Method: Test E. In Vivo Efficacy in the Mouse Peritonitis or Mouse Septicemia Model.
# Assessment of in vivo efficacy was performed using femal Swiss Webster mice (obtained from Taconic Farms, Germantown, Pa.) employing a murine septicemia model of staphylococcal infection. For bioassays examining efficacy against MSSA, each mouse was inoculated intraperitoneally with 500 μl of an inoculum containing 1.0×10^8 CFU per ml of S. aureus. All of the in vivo efficacy studies include a negative control group of infected mice treated intravenously either with vehicle alone (6 mice) or untreated (6 mice), as well as a positive control groups of infected mice treated with 200 ul of […] of vancomycin administered intravenously (4 mice) and a second control group using 2.0 mg/ml of oxacillin (4 mice). After the mice were infected, groups of six mice are treated by tail vein injection with 300 ul of a solution containing 2.0 mg of Example 6 in 10 mM citrate. Mice received four doses Example 6 administered with a 15 minute interval. Control mice are treated with vancomycin qd, oxacillin b.i.d, or vehicle alone. […] Animals are given food and water ad libitum. Survival within each experimental group is monitored over a 24 hout time period. Monitoring of the mice began 4 hours after the start of experiment. All of the effective mice treated with Example 6 survived the infection (5/5, 100% survival). All of the oxacillin-treated (4/4) and vancomycin-treated mice (4/4) survived the infection. All of the vehicle controls died within 12 hours, with 0/6 or 0% survival. Among the infected mice that receive no treatment, only 1/6 survived (16.7% survival).
row,Compound,survival [%]
1,CN(C)CNC(=O)c1c(F)ccc(OCc2nc3cc(Cl)cnc3s2)c1F [Example 6],100

# Same assay, conditions: MSSA-infected mice, i.v. treatment; 24 h monitoring
row,Compound,mice surviving the infection / mice
1,CN(C)CNC(=O)c1c(F)ccc(OCc2nc3cc(Cl)cnc3s2)c1F [Example 6],5/5

# Same assay, conditions: group of six mice, 300 ul i.v. of 2.0 mg solution in 10 mM citrate, four doses
row,Compound,death during the course of treatment
1,CN(C)CNC(=O)c1c(F)ccc(OCc2nc3cc(Cl)cnc3s2)c1F [Example 6],One of the mice treated with Example 6 died during the course of treatment
